Laboratory results: ChEMBL document CHEMBL4507273 (2021)

Key:
[1] = tested on: Tyrosine-protein kinase ABL1 (Homo sapiens), P00519 [F317I]; conditions: Compound concentration 1000.0 nM
[2] = molecular target: Mitogen-activated protein kinase kinase kinase 5 (Homo sapiens) (UniProt Q99683); conditions: Compound concentration 1000.0 nM
[3] = molecular target: Tyrosine-protein kinase BTK (Homo sapiens) (UniProt Q06187); conditions: Compound concentration 1000.0 nM
[4] = molecular target: Casein kinase I isoform gamma-1 (Homo sapiens) (UniProt Q9HCP0); conditions: Compound concentration 1000.0 nM
[5] = molecular target: Casein kinase II subunit alpha (Homo sapiens) (UniProt P68400); conditions: Compound concentration 1000.0 nM
[6] = tested on: Epidermal growth factor receptor (Homo sapiens), P00533 [UNDEFINED MUTATION]; conditions: Compound concentration 1000.0 nM
[7] = tested on: Epidermal growth factor receptor (Homo sapiens), P00533 [L858R]; conditions: Compound concentration 1000.0 nM
[8] = molecular target: Receptor tyrosine-protein kinase erbB-3 (Homo sapiens) (UniProt P21860); conditions: Compound concentration 1000.0 nM
[9] = molecular target: Serine/threonine-protein kinase/endoribonuclease IRE1 (Homo sapiens) (UniProt O75460); conditions: Compound concentration 1000.0 nM
[10] = molecular target: Tyrosine-protein kinase Fes/Fps (Homo sapiens) (UniProt P07332); conditions: Compound concentration 1000.0 nM
[11] = molecular target: Fibroblast growth factor receptor 3 (Homo sapiens) (UniProt P22607); conditions: Compound concentration 1000.0 nM
[12] = tested on: Fibroblast growth factor receptor 3 (Homo sapiens), P22607 [G697C]; conditions: Compound concentration 1000.0 nM
[13] = molecular target: Tyrosine-protein kinase JAK1 (Homo sapiens) (UniProt P23458); conditions: Compound concentration 1000.0 nM
[14] = tested on: Mast/stem cell growth factor receptor Kit (Homo sapiens), P10721 [L576P]; conditions: Compound concentration 1000.0 nM
[15] = molecular target: Serine/threonine-protein kinase 10 (Homo sapiens) (UniProt O94804); conditions: Compound concentration 1000.0 nM
[16] = molecular target: Dual specificity mitogen-activated protein kinase kinase 6 (Homo sapiens) (UniProt P52564); conditions: Compound concentration 1000.0 nM
[17] = molecular target: Serine/threonine-protein kinase 4 (Homo sapiens) (UniProt Q13043); conditions: Compound concentration 1000.0 nM
[18] = molecular target: Serine/threonine-protein kinase 38-like (Homo sapiens) (UniProt Q9Y2H1); conditions: Compound concentration 1000.0 nM
[19] = molecular target: Serine/threonine-protein kinase Nek11 (Homo sapiens) (UniProt Q8NG66); conditions: Compound concentration 1000.0 nM
[20] = molecular target: Platelet-derived growth factor receptor beta (Homo sapiens) (UniProt P09619); conditions: Compound concentration 1000.0 nM
[21] = tested on: Phosphatidylinositol 4,5-bisphosphate 3-kinase catalytic subunit alpha isoform (Homo sapiens), P42336 [C420R]; conditions: Compound concentration 1000.0 nM
[22] = tested on: Phosphatidylinositol 4,5-bisphosphate 3-kinase catalytic subunit alpha isoform (Homo sapiens), P42336 [H1047Y]; conditions: Compound concentration 1000.0 nM
[23] = tested on: Phosphatidylinositol 4,5-bisphosphate 3-kinase catalytic subunit alpha isoform (Homo sapiens), P42336 [I800L]; conditions: Compound concentration 1000.0 nM
[24] = molecular target: Phosphatidylinositol 4,5-bisphosphate 3-kinase catalytic subunit gamma isoform (Homo sapiens) (UniProt P48736); conditions: Compound concentration 1000.0 nM
[25] = molecular target: Phosphatidylinositol 4-phosphate 5-kinase type-1 gamma (Homo sapiens) (UniProt O60331); conditions: Compound concentration 1000.0 nM
[26] = molecular target: Serine/threonine-protein kinase N1 (Homo sapiens) (UniProt Q16512); conditions: Compound concentration 1000.0 nM
[27] = molecular target: Serine/threonine-protein kinase D2 (Homo sapiens) (UniProt Q9BZL6); conditions: Compound concentration 1000.0 nM
[28] = molecular target: Receptor-interacting serine/threonine-protein kinase 2 (Homo sapiens) (UniProt O43353); conditions: Compound concentration 1000.0 nM
[29] = molecular target: Proto-oncogene tyrosine-protein kinase ROS (Homo sapiens) (UniProt P08922); conditions: Compound concentration 1000.0 nM
[30] = molecular target: Ribosomal protein S6 kinase alpha-1 (Homo sapiens) (UniProt Q15418); conditions: Compound concentration 1000.0 nM
[31] = molecular target: Serine/threonine-protein kinase SIK2 (Homo sapiens) (UniProt Q9H0K1); conditions: Compound concentration 1000.0 nM
[32] = molecular target: STE20-like serine/threonine-protein kinase (Homo sapiens) (UniProt Q9H2G2); conditions: Compound concentration 1000.0 nM
[33] = molecular target: STE20/SPS1-related proline-alanine-rich protein kinase (Homo sapiens) (UniProt Q9UEW8); conditions: Compound concentration 1000.0 nM
[34] = molecular target: Serine/threonine-protein kinase WNK2 (Homo sapiens) (UniProt Q9Y3S1); conditions: Compound concentration 1000.0 nM
[35] = molecular target: Mitogen-activated protein kinase kinase kinase 20 (Homo sapiens) (UniProt Q9NYL2); conditions: Compound concentration 1000.0 nM
[36] = molecular target: 5-hydroxytryptamine receptor 1B (Homo sapiens, UniProt P28222); conditions: Compound concentration 10.0 uM
[37] = molecular target: 5-hydroxytryptamine receptor 6 (Homo sapiens) (UniProt P50406); conditions: Compound concentration 10.0 uM
D(3) dopamine receptor = D(3) dopamine receptor (Homo sapiens, UniProt P35462); conditions: Compound concentration 10.0 uM
Histamine H2 receptor = Histamine H2 receptor (Homo sapiens, UniProt P25021); conditions: Compound concentration 10.0 uM
Sequence of Histamine H2 receptor (P25021 whole entry): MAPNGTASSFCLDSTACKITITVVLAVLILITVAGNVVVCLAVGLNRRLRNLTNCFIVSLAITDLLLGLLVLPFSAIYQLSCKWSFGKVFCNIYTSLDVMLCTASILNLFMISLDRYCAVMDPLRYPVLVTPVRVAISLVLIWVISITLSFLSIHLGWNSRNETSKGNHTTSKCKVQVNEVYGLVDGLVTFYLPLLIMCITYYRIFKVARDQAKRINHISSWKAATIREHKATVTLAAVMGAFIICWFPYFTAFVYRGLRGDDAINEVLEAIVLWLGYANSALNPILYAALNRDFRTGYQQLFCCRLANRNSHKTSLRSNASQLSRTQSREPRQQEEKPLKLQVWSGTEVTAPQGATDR

Sequence of Tyrosine-protein kinase ABL1 (Homo sapiens), P00519 [F317I] (P00519 whole entry F317I): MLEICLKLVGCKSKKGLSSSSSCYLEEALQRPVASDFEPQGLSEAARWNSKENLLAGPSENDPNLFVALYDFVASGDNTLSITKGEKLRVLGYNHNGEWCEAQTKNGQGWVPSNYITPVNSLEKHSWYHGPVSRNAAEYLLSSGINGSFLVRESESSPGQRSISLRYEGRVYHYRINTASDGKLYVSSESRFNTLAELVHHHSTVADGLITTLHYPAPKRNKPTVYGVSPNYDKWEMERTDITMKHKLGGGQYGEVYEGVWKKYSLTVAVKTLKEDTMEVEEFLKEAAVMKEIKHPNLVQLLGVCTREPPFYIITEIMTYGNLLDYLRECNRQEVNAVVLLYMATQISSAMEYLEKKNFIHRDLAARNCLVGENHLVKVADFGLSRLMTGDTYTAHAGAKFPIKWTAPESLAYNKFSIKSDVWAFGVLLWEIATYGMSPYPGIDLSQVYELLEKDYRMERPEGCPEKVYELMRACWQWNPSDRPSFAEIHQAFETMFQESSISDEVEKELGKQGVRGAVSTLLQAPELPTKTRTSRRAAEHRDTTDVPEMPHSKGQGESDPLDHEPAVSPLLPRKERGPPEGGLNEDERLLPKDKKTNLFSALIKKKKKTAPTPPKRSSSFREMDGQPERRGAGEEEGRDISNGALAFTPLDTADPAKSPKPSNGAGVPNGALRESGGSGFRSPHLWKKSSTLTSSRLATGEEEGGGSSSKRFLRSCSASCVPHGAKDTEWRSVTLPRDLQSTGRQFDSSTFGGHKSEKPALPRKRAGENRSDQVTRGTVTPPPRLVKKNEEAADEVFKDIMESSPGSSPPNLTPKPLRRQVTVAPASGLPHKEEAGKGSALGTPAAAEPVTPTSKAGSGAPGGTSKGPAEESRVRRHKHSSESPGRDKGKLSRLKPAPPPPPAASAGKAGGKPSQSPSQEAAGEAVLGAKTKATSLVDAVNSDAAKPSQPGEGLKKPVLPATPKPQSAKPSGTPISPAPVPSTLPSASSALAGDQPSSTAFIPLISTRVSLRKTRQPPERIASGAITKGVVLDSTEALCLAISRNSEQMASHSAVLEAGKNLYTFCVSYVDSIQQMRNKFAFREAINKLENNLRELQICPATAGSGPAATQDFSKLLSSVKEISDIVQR
Sequence of 5-hydroxytryptamine receptor 1B (P28222 whole entry): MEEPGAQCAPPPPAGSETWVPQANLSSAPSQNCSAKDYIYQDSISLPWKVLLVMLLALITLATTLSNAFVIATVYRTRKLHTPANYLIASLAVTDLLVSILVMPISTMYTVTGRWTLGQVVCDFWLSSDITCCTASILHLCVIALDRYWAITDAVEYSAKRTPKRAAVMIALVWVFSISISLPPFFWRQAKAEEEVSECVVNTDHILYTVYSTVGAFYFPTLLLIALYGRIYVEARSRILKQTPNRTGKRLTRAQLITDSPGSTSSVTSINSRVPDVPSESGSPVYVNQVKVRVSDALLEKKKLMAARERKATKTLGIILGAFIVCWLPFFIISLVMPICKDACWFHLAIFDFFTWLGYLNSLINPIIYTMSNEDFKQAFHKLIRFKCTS
Sequence of Phosphatidylinositol 4,5-bisphosphate 3-kinase catalytic subunit alpha isoform (Homo sapiens), P42336 [I800L] (P42336 whole entry I800L, canonical isoform): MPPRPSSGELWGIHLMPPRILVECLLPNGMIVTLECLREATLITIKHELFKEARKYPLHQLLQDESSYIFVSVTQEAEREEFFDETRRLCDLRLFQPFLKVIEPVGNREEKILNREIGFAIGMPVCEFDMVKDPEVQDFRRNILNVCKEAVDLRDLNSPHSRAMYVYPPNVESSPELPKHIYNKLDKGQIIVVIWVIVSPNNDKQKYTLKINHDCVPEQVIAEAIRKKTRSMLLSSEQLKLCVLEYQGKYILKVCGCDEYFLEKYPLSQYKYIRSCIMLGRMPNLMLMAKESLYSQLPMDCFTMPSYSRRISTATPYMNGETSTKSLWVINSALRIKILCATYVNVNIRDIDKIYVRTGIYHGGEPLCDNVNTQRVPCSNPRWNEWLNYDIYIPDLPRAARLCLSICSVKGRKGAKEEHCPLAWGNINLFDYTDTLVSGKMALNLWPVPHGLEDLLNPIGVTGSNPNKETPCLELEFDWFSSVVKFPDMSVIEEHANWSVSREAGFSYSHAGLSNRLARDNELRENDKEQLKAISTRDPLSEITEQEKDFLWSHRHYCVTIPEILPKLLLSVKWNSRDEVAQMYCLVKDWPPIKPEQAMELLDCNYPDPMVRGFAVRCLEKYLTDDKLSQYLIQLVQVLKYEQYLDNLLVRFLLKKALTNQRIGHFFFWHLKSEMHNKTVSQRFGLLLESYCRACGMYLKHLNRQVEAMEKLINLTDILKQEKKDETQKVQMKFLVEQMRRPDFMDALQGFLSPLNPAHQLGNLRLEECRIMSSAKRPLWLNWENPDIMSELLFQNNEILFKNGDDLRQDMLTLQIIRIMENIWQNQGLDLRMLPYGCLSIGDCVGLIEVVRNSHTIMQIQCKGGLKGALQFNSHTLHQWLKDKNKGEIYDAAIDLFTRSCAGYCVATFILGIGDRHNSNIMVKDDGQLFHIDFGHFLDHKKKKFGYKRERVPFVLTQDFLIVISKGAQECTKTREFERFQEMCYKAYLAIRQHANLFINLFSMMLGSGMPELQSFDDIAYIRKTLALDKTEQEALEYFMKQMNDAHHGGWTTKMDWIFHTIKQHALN
Sequence of 5-hydroxytryptamine receptor 6 (Homo sapiens) (P50406 whole entry): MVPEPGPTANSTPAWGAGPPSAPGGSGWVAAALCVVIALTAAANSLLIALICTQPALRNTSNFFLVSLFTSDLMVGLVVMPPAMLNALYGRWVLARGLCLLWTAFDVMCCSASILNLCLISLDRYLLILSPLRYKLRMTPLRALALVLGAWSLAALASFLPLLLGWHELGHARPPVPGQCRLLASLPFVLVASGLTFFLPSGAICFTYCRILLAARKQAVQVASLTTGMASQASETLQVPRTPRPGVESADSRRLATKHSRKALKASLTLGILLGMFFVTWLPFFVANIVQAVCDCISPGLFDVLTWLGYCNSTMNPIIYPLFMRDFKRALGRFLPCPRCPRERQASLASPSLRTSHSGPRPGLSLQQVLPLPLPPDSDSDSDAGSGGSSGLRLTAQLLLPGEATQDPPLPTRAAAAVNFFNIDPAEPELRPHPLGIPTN
Sequence of Receptor tyrosine-protein kinase erbB-3 (Homo sapiens) (P21860 whole entry): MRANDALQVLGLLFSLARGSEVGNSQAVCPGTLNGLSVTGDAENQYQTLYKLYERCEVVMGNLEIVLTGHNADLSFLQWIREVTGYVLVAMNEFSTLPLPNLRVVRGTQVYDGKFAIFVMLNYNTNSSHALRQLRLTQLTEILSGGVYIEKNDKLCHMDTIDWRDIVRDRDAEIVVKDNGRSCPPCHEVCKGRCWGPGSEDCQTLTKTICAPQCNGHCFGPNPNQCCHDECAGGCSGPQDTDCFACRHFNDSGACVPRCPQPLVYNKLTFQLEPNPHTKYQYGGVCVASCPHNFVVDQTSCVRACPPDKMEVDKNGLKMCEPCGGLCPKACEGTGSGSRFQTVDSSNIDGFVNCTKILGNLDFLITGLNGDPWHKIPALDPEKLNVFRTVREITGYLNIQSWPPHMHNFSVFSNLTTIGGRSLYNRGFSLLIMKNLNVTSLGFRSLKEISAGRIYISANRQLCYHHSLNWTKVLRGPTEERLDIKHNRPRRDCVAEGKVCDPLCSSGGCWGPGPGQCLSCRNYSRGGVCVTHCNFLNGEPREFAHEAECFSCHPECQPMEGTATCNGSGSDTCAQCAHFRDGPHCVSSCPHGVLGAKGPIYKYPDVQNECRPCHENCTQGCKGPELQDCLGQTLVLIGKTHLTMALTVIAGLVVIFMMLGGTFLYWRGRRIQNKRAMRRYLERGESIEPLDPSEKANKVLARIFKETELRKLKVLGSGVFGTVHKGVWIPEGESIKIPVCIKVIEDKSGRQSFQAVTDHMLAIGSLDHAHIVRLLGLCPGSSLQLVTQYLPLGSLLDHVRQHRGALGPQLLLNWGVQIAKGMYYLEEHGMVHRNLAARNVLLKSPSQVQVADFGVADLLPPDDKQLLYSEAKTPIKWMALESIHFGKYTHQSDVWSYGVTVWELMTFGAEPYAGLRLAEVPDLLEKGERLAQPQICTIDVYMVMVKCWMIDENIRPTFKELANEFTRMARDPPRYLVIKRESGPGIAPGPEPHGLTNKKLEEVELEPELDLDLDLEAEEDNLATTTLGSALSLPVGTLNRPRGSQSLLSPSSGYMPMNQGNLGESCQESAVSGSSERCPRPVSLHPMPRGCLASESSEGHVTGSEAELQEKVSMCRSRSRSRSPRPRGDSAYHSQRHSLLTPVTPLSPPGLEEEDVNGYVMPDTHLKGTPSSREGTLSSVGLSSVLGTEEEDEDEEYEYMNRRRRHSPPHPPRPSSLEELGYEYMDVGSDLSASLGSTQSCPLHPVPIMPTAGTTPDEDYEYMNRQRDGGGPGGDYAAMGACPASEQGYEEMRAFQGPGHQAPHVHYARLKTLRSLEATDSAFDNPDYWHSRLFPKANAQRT
Sequence of Dual specificity mitogen-activated protein kinase kinase 6 (Homo sapiens) (P52564 whole entry): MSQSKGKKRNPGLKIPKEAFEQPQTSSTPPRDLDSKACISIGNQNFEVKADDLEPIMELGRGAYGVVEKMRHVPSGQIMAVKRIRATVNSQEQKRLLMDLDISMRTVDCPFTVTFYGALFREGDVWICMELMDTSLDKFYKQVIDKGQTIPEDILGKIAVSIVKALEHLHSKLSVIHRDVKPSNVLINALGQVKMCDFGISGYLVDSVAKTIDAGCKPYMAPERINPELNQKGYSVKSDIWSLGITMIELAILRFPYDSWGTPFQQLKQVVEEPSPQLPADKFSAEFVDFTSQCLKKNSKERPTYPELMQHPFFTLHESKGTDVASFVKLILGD

| SMILES | residual activity [1] [%] | residual activity [2] [%] | residual activity [3] [%] | residual activity [4] [%] | residual activity [5] [%] | residual activity [6] [%] | residual activity [7] [%] | residual activity [8] [%] | residual activity [9] [%] | residual activity [10] [%] | residual activity [11] [%] | residual activity [12] [%] | residual activity [13] [%] | residual activity [14] [%] | residual activity [15] [%] | residual activity [16] [%] | residual activity [17] [%] | residual activity [18] [%] | residual activity [19] [%] | residual activity [20] [%] | also measured |
| --- | --- | --- | --- | --- | --- | --- | --- | --- | --- | --- | --- | --- | --- | --- | --- | --- | --- | --- | --- | --- | --- |
| CNCc1ccccc1-c1csc([C@@H](C)Nc2nc(C)nc3cc(OC)c(OC)cc23)c1 [BAY-293] | 78 | 91 | 90 | 88 | 83 | 100 | 82 | 76 | 100 | 100 | 90 | 85 | 100 | 92 | 95 | 86 | 100 | 86 | 100 | 91 | residual activity [21]: 81%; residual activity [22]: 100%; residual activity [23]: 85%; residual activity [24]: 67%; residual activity [25]: 88%; residual activity [26]: 100%; residual activity [27]: 100%; residual activity [28]: 100%; residual activity [29]: 84%; residual activity [30]: 100%; residual activity [31]: 100%; residual activity [32]: 97%; residual activity [33]: 100%; residual activity [34]: 72%; residual activity [35]: 75%; inhibition [36]: 66.1%; inhibition [37]: -1.41%; inhibition (D(3) dopamine receptor): 56.8%; inhibition (Histamine H2 receptor): 100% |
| CNCc1ccccc1-c1csc([C@H](C)Nc2nc(C)nc3cc(OC)c(OC)cc23)c1 [BAY-294] | 80 | 100 | 89 | 92 | 91 | 89 | 100 | 87 | 100 | 100 | 98 | 100 | 89 | 100 | 100 | 100 | 100 | 94 | 100 | 99 | residual activity [21]: 97%; residual activity [22]: 100%; residual activity [23]: 81%; residual activity [24]: 73%; residual activity [25]: 100%; residual activity [26]: 100%; residual activity [27]: 99%; residual activity [28]: 100%; residual activity [29]: 100%; residual activity [30]: 100%; residual activity [31]: 100%; residual activity [32]: 100%; residual activity [33]: 100%; residual activity [34]: 99%; residual activity [35]: 100%; inhibition [36]: 75%; inhibition [37]: 20.2%; inhibition (D(3) dopamine receptor): 64.8%; inhibition (Histamine H2 receptor): 101% |
